For the test, the target named is T1, S1P4 (Homo sapiens, UniProt O95977).
T1 construct: expressed in transfected cells
T1 sequence (O95977 1-384): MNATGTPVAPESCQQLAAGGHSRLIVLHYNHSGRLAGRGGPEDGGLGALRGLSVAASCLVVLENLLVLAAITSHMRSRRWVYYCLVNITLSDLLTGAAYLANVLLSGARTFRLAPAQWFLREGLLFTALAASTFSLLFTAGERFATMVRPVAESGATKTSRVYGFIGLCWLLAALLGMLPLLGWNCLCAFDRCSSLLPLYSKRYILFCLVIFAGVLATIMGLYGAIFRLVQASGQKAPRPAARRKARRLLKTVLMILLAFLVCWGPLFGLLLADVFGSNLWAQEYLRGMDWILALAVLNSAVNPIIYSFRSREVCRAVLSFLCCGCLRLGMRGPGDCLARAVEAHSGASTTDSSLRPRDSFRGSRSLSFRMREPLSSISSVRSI
Briefly: EC50 for S1P4 'in this assay' (GTPγS binding or calcium mobilization, not specified). Type of test: cell-based. To be noted: assay format not specified ('this assay'). As for the experimental part:
The selection of the clones to be tested in the GTPγS assay is based on the real time PCR assays. CHO clones expressing large amounts of human S1P4 are used in these experiments. Membrane proteins are prepared as described above. The basic protocol of GTPγ^35S-binding assay used is described in a recent publication (Brinkmann et al. 2002, J. Biol. Chem, 277, 21453) with the modifications described here below. To characterize the GTPγ^35S-binding to membrane proteins from CHO cells expressing S1P, WGA coated PVT beads (SPA-bead, Amersham Biosciences) are used. Because β-rays of GTPγ^35S have […] in water solution, the plates are centrifuged to minimize non-specific effects caused by the non bound GTPγ^35S. The assay is performed in 96-well Optiplates (Packard, Cat. N^o 6005190) in final volume of 225 μl/well. […] The plates are then centrifuged for 10 minutes at 2000 rpm and counted with a TopCount instrument (Packard). […]
CHO cells are plated in black Costar plate (96 or 384 well, 50,000 cells or 12,500 cells, respectively) in a MEM with FCS and cultured for 20-24 h at 37° C. in a CO2 incubator. […] After measuring the baseline for 40 sec, the agonist in HBSS is added and the fluorescence is measured at intervals of 2 sec for 3 to 5 min. […]

Results on one compound are retold here after US7754896B2, “Indol-alanine derivatives as selective S1P4-agonists” (Novartis AG, priority 2004, dated 2010).

Take `CCc1ccccc1-c1cccc2[nH]c(C(=O)NC[C@@H](N)C(=O)O)cc12` [Example 1, 3-(4-(2-Ethylphenyl)-2-carboxamido-indole)-D-alanine]: the EC50 turned out to be 432 nM.
